In patent US11753363B2, “13-oxidized ingenol derivative and use thereof” (Tianjin Pharmaceutical Da Ren Tang Group Corp., Ltd. …, priority 2017, dated 2023):
Converted amounts (≈) assume the structure as drawn.

Assays:
Assay type in all cases: cell-based
[1] = tested on: HeLa (human cervical cancer cells); experiment: Inhibition of proliferation of tumor cell lines (MTT), HeLa; conditions: Homo sapiens, 72 h, read-out: IC50 value of compound for inhibition of proliferation of tumor cell lines, HeLA
Description: (§1) In this example, the inhibitory activity of compounds of the present invention against proliferation of seven human tumor cell lines and mouse B16-F10 melanoma cells was tested in vitro, and the IC50 value (50% inhibitory concentration) of compounds against each tumor cell line was calculated.
(§2) The seven human tumor cell lines are: MCF-7 (human breast cancer cells), LOVO (human colon cancer cells), A549 (human lung cancer cells), BGC-823 (human gastric cancer cells), SMMC-7721 (human liver cancer cells), K562 (human leukemia cells), and HeLa (human cervical cancer cells).
(§3) IC50 values of the compounds for A549, BGC-823, LOVO, MCF-7, SMMC-7721, HeLa, and B16-F10 cells were tested. The above cells were routinely cultured in 1640 nutrient solution containing 10% calf serum, with passage for 1 time every 2 days, and the cells in logarithmic growth phase were taken for experiments. After the A549, BGC-823, LOVO, MCF-7, SMMC-7721, HeLa and B16-F10 cells in logarithmic growth phase were subjected to 0.25% trypsin digestion, they were blown into a single cell suspension, and then the cell concentration was adjusted to about 1×10^5·mL^−1 using RPMI 1640 solution containing 10% calf serum. The cells were seeded in a 96-well culture plate at 100 μL per well, and cultured for 24 hours until the cells were attached. K562 cells were taken and centrifuged and diluted into 2×10^5·mL^−1 single cell suspension with RPMI 1640 solution containing 10% calf serum, and inoculated into a 96-well culture plate at 100 μL per well.
(§4) 100 μL of sample solution with different concentrations to be tested were added to the above 96-well plate, each concentration was added to 4 wells in parallel, and the cell control group was added with an equal volume of RPMI 1640 medium containing 10% calf serum to make a reaction volume of 200 μL. After incubating in an incubator at 37° C., 5% CO2 for 72 h, 10 μL of 5 mg·mL^−1 MTT solution was added to each well, and incubated at 37° C. for 4 h. The supernatant was carefully aspirated, 180 μL of DMSO was added to each well followed by shaking, and the absorbance (OD) value was measured at 570 nm on the microplate reader. The inhibition rate was calculated, and regression equation was established with the logarithmic value of the sample concentration and the inhibition rate (IR) to find the IC50 value of the compound against the cells to be tested. IR (%)=(1−OD value of the experimental group/OD value of the cell control group)×100%

[2] = tested on: neutrophilic granulocytes; experiment: Neutrophil oxidative burst (luminol chemiluminescence); conditions: Neutrophil, rat neutrophils, (Csample−Ccontrol)/Ccontrol×100%, read-out: Efficiency of compounds in stimulating neutrophil oxidative burst; for activation at 3 µg/mL: 3 μg/mL
Description: This example investigated the effect of compound on neutrophil oxidative burst and calculated the efficiency of each compound in stimulating neutrophil oxidative burst.
Blood was taken from the abdominal aorta of rat. The neutrophilic granulocytes were isolated by the operational procedure of the rat peripheral blood neutrophil isolation kit. The neutrophilic granulocytes were re-suspended by Hanks, and were plated in a 96-well white plate at 1×10^5 cells/well, 80 μL/well; 1 mM of Luminol was added at 10 μL/well; 10 μL of the sample was added to each well, and the degree of oxidative burst was evaluated by chemiluminescence. Calculation formula of Efficiency: Efficiency (%)=(Csample−Ccontrol)/Ccontrol×100%

[3] = tested on: SMMC-7721 (human liver cancer cells); experiment: Inhibition of proliferation of tumor cell lines (MTT), SMMC-7721; conditions: Homo sapiens, SMMC-7721, 72 h, read-out: IC50 value of compound for inhibition of proliferation of tumor cell lines, SMMC-7721
Description: as §1, §2, §3, §4

[4] = tested on: LOVO (human colon cancer cells); experiment: Inhibition of proliferation of tumor cell lines (MTT), LOVO; conditions: Homo sapiens, 72 h, read-out: IC50 value of compound for inhibition of proliferation of tumor cell lines, LOVO
Description: as §1, §2, §3, §4

[5] = tested on: K562 (human leukemia cells); experiment: Inhibition of proliferation of tumor cell lines (MTT), K562; conditions: Homo sapiens, K562, 72 h, read-out: IC50 value of compound for inhibition of proliferation of tumor cell lines, K562
Description: as §1, §2, §3, §4

[6] = tested on: A549 (human lung cancer cells); experiment: Inhibition of proliferation of tumor cell lines (MTT), A549; conditions: Homo sapiens, A549, 72 h, read-out: IC50 value of compound for inhibition of proliferation of tumor cell lines, A549
Description: as §1, §2, §3, §4

[7] = tested on: MCF-7 (human breast cancer cells); experiment: Inhibition of proliferation of tumor cell lines (MTT), MCF-7; conditions: Homo sapiens, MCF7, MCF-7, 72 h, read-out: IC50 value of compound for inhibition of proliferation of tumor cell lines, MCF-7
Description: as §1, §2, §3, §4

[8] = tested on: BGC-823 (human gastric cancer cells); experiment: Inhibition of proliferation of tumor cell lines (MTT), BGC-823; conditions: Homo sapiens, BGC-823, 72 h, read-out: IC50 value of compound for inhibition of proliferation of tumor cell lines, BGC-823
Description: as §1, §2, §3, §4

[9] = tested on: release of IL-8 by human keratinocytes (HaCaT); experiment: Release of IL-8 by human keratinocytes (HaCaT), IL-8 Elisa; conditions: Homo sapiens, HaCaT, 24 h, (Csample−Ccontrol)/Ccontrol×100%, read-out: Efficiency of compound in stimulating the release of IL-8 by HaCaT cells; for activation at 1 µg/mL: 1 μg/mL
Description: This Example investigated the effect of compound on release of IL-8 by human keratinocytes (HaCaT) and calculated the efficiency of each compound in stimulating the release of IL-8 by human keratinocytes (HaCaT).
Hacat cells were cultured in MEM+10% FBS under the conditions of 37° C., 5% CO2, and when the cells reached 80-95% fusion, they were inoculated into a 96-well culture plate (1×10^4 cells/well) at 100 μL/well, and incubated for 18-24 h. The supernatant was discarded and the cells were incubated for 3-6 h in 1% FBS medium. Different concentrations of the sample solution of compound to be tested were added to each well, and the cell control group was added with an equal volume of 1% FBS medium at 10 μL/well, and incubated for 24 h. The supernatant was taken and tested according to the operation sequence of the IL-8 Elisa kit. Calculation formula of Efficiency: Efficiency (%)=(Csample−Ccontrol)/Ccontrol×100%

Structure (SMILES)	IC50 [1]	activation at 3 µg/mL [2]	IC50 [3]	IC50 [4]	IC50 [5]	IC50 [6]	IC50 [7]	IC50 [8]	activation at 0.1 µg/mL ([2]; 0.1 μg/mL)	activation at 0.1 µg/mL ([9]; 0.1 μg/mL)	activation at 1 µg/mL [9]
CCCCCCCCCCCC(=O)O[C@@]12C[C@@H](C)[C@]34C=C(C)[C@H](O)[C@@]3(O)[C@H](O)C3(COC(=O)C(C)C(C)C)OC3[C@H](C4=O)[C@@H]1C2(C)C (stereo partly drawn) [Compound 1f, 6,7-epoxy-20-O-(2,3-dimethylbutyryl)-13-O-dodecanoyl-ingenol]	16.8 µg/mL (≈ 25.4 µM)	–	–	–	–	–	–	–	–	–	–
CCCCCCCCCC(=O)O[C@@]12C[C@@H](C)[C@]34C=C(C)[C@H](O)[C@@]3(O)[C@H](O)C(CO)=C[C@H](C4=O)[C@@H]1C2(C)C [Compound 1a, 13-O-decanoyl-ingenol]	29.1 µg/mL (≈ 56.1 µM)	65.2%	19.5 µg/mL (≈ 37.6 µM)	9.77 µg/mL (≈ 18.8 µM)	0.7 µg/mL (≈ 1.35 µM)	15.1 µg/mL (≈ 29.1 µM)	13.8 µg/mL (≈ 26.6 µM)	15 µg/mL (≈ 28.9 µM)	–	–	–
C/C=C(/C)C(=O)OCC1=C[C@@H]2C(=O)[C@]3(C=C(C)[C@H](OC(=O)/C(C)=C\C)[C@@]3(O)[C@@H]1O)[C@H](C)C[C@]1(OC(=O)CCCCCCCCCCC)[C@H]2C1(C)C [Compound 15a, 3,20-O-diangeloyl-13-O-dodecanoyl-ingenol]	–	–	26.9 µg/mL (≈ 37.8 µM)	> 100 µg/mL	3.22 µg/mL (≈ 4.53 µM)	> 100 µg/mL	> 100 µg/mL	> 100 µg/mL	–	–	–
CCCCCCCCCCCC(=O)O[C@@]12C[C@@H](C)[C@]34C=C(C)[C@H](OC(=O)CCCCC)[C@@]3(O)[C@H](O)C(CO)=C[C@H](C4=O)[C@@H]1C2(C)C [3-O-hexanoyl-13-O-dodecanoyl-ingenol]	–	–	16.1 µg/mL (≈ 25 µM)	16.5 µg/mL (≈ 25.6 µM)	< 0.2 µg/mL	18.5 µg/mL (≈ 28.7 µM)	14 µg/mL (≈ 21.7 µM)	18.3 µg/mL (≈ 28.4 µM)	173%	66%	–
CCCCCCCCCC(=O)O[C@@]12C[C@@H](C)[C@]34C=C(C)[C@H](O)[C@@]3(O)[C@H](O)C(COC(=O)C(C)C(C)C)=C[C@H](C4=O)[C@@H]1C2(C)C (stereo partly drawn) [Compound 14, 20-O-(2,3-dimethylbutyryl)-13-O-decanoyl-ingenol]	–	62.8%	–	–	–	–	–	–	–	–	22.6%
CCCCCCCCCCCC(=O)O[C@@]12C[C@@H](C)[C@]34C=C(C)[C@H](O)[C@@]3(O)[C@H](O)C(C)=C[C@H](C4=O)[C@@H]1C2(C)C [Compound 1d, 20-deoxy-13-O-dodecanoyl-ingenol]	–	–	31.5 µg/mL (≈ 59.4 µM)	19.2 µg/mL (≈ 36.2 µM)	6.88 µg/mL (≈ 13 µM)	26.8 µg/mL (≈ 50.5 µM)	29.2 µg/mL (≈ 55 µM)	15.4 µg/mL (≈ 29 µM)	–	–	–
CCCCC/C=C/C=C/C(=O)O[C@@]12C[C@@H](C)[C@]34C=C(C)[C@H](O)[C@@]3(O)[C@H](O)C(CO)=C[C@H](C4=O)[C@@H]1C2(C)C [Compound 1b, 13-O-(2′E,4′E-decadienoyl)-ingenol]	–	–	8.01 µg/mL (≈ 15.6 µM)	12.9 µg/mL (≈ 25.1 µM)	8.97 µg/mL (≈ 17.4 µM)	12.8 µg/mL (≈ 24.9 µM)	11.8 µg/mL (≈ 22.9 µM)	10.6 µg/mL (≈ 20.6 µM)	–	–	–
CCCCCC(=O)O[C@@]12C[C@@H](C)[C@]34C=C(C)[C@H](O)[C@@]3(O)[C@H](O)C(CO)=C[C@H](C4=O)[C@@H]1C2(C)C [Compound 6, 13-O-n-hexanoyl-ingenol]	–	52.2%	–	–	–	–	–	–	–	–	–
C/C=C(/C)C(=O)O[C@H]1C(C)=C[C@]23C(=O)[C@@H](C=C(CO)[C@@H](O)[C@]12O)[C@@H]1C(C)(C)[C@]1(O)C[C@H]3C [Compound 3, 3-O-angeloyl-13-hydroxy-ingenol]	–	65%	–	–	–	–	–	–	–	–	23.8%
CCCCCCCCCCCC(=O)O[C@@]12C[C@@H](C)[C@]34C=C(C)[C@H](O)[C@@]3(O)[C@@H]3OC(C)(C)OCC3=C[C@H](C4=O)[C@@H]1C2(C)C [Compound 2b, 13-O-dodecanoyl-ingenol 5,20-acetonide]	–	–	15.2 µg/mL (≈ 25.9 µM)	23 µg/mL (≈ 39.2 µM)	0.85 µg/mL (≈ 1.45 µM)	15 µg/mL (≈ 25.6 µM)	13.7 µg/mL (≈ 23.3 µM)	17.8 µg/mL (≈ 30.3 µM)	–	–	–
CC1=C[C@]23C(=O)[C@@H](C4OC4(C)[C@@H](O)[C@]2(O)[C@H]1O)[C@H]1C(C[C@H]3C)C1(C)C (stereo partly drawn) [Compound 1e, 6,7-epoxy-20-deoxy-ingenol]	–	–	> 200 µg/mL	> 200 µg/mL	5.52 µg/mL (≈ 15.8 µM)	> 200 µg/mL	> 200 µg/mL	> 200 µg/mL	–	–	–
CCCCCCCCCCCC(=O)O[C@@]12C[C@@H](C)[C@]34C=C(C)[C@@H]5OC(C)(C)O[C@@]53[C@H](O)C(CO)=C[C@H](C4=O)[C@@H]1C2(C)C [Compound 2c, 13-O-dodecanoyl-ingenol 3,4-acetonide]	–	64.6%	8.21 µg/mL (≈ 14 µM)	10.3 µg/mL (≈ 17.6 µM)	0.42 µg/mL (≈ 0.716 µM)	9.59 µg/mL (≈ 16.3 µM)	8.89 µg/mL (≈ 15.1 µM)	5.3 µg/mL (≈ 9.03 µM)	–	–	–
CCCCCCCCCCCC(=O)O[C@@]12C[C@@H](C)[C@]34C=C(C)[C@H](O)[C@@]3(O)[C@H](O)C(CO)=C[C@H](C4=O)[C@@H]1C2(C)C [Compound 1c, 13-O-dodecanoyl-ingenol]	15.1 µg/mL (≈ 27.6 µM)	–	6.49 µg/mL (≈ 11.9 µM)	8.97 µg/mL (≈ 16.4 µM)	5.51 µg/mL (≈ 10.1 µM)	11.1 µg/mL (≈ 20.3 µM)	6.36 µg/mL (≈ 11.6 µM)	6.19 µg/mL (≈ 11.3 µM)	–	–	–
